{"source": "patent US4442093A", "about": "“Method for administering 24,25-dihydroxycholecalciferol to persons suffering from hypercalcemia” (Kureha Kagaku Kogyo Kabushiki Kaisha, priority 1981, dated 1984)", "key": {"[1]": {"system": "K-562 tumour cell derived from human leukemia", "experiment": "Inhibition of proliferation of K-562 cells (Example 24)", "assay_type": "cell-based", "details": "3 days", "method": "Cultured K-562 tumour cell derived from human leukemia, which proliferates in a suspended state in RPMI-1640 culture medium added with 10% by weight of fetal bovine serum was used in the following experiment.\nThe cells were cultured in the above-mentioned culture medium at an initial cell concentration of 1×10^5 cells/ml with or without adding 24R,25-(OH)2 -D3, which was placed in dishes kept in an incubator of an atmosphere consisting of 95% by volume of air and 5% by volume of gaseous carbon dioxide at 37° C. After culturing 3 days, the cultured medium was stained with tripan blue to count the total number of living cells. The results are shown in Table 18 with the specifically added substances into the culture medium other than fetal bovine serum of 10% by weight."}, "[2]": {"system": "calcium level in serum", "experiment": "Serum calcium in rats made hypercalcemic with parathyroid hormone (Example 3)", "assay_type": "in vivo, male Wistar rats", "details": "50 µg/kg i.p., PTH-treated", "method": "To 4 subgroups of male Wistar rats of 150±40 g of body weight (a subgroup consisting of 5 animals), parathyroid hormone (PTH, Sigma Bovine parathyroid TCA powder, 134 USPU/mg) dissolved in a physiological saline solution containing 4% by weight of gelatine was subcutaneously injected at a dose rate of 150 USPU/100 g body weight, the volume injected being 0.4 ml/100 g body weight to prepare the rats artificially suffering from hypercalcemia.\nThe rats of the second group, after one hour of the administration of the parathroid hormone, were intraperitoneally administered only with ethanol, and treated as in the first group for taking the blood specimen."}, "[3]": {"system": "calcium level in serum", "experiment": "Serum calcium in patient with sarcoidosis accompanied by hypercalcemia (Example 8)", "assay_type": "in vivo, human", "details": "person two", "method": "To patient two diagnosed to be sarcoidosis accompanied by hypercalcemia of the calcium level in their serum of 14.0 mg/dl, the capsule composition similar to that prepared in Example 6 was administered orally at a daily dose of two capsules each containing 5 micrograms of 24R,25-(OH)2 -D3 for continuous 5 days. The calcium level in serum from the blood specimen collected on the sixth day of the commencement of the treatment was 10.8 mg/dl."}, "[4]": {"system": "calcium level in serum", "experiment": "Serum calcium in rats made hypercalcemic with Vitamin D3 (Example 1)", "assay_type": "in vivo, male Wistar rats", "details": "for Calcium level in serum: 24R 100 µg/kg oral, calcitonin 4 MRCU/kg s.c.", "method": "To 16 subgroups of male Wistar rats of body weight of 150±40 g (one subgroup consisting of 5 rats), a solution of Vitamin D3 dissolved in corn oil at 600 micrograms/ml was orally administered once a day for continuous 4 days at a daily dose rate of 0.5 ml/100 g body weight to prepare the rats artifically suffering from hypercalcemia. After one day's fasting from the final administration of Vitamin D3, the calcium level in the serum of each rat of the first subgroup was on the average 13.5±0.4 mg/dl. The remaining 15 subgroups of the rats were divided into 3 groups each consisting of 5 subgroups and subjected to the following tests.\nTo the rats of the second group, a solution of porcine calcitonin in a physiological saline solution containing 4% by weight of gelatin was subcutaneously injected at a dose rate of 4 MRCU/kg body weight instead of the solution of 24R,25-(OH)2 -D3 and they were treated as those of the first group.\nTo the rats of the third group, only the same triglyceride ester as in the first group was orally administered, and they are treated in the same manner as in the first group.\nThe calcium level of the respective sera of the thus collected blood was determined by OCPC method (Orthocresol Phthalein Complexone method) and shown in Table 1."}, "[5]": {"system": "content of magnesium in serum and bone", "experiment": "Serum and bone magnesium in rats on Vitamin D-deficient diet (Example 16)", "assay_type": "in vivo, male Wistar rats", "details": "diet TD-81143", "method": "Forty male Wistar rats in 9th week after birth were divided equally into four groups, and the rats of each group were treated as follows:\nThe rats of the first group were raised with a normal diet (TD-81144) with daily oral administration of 0.2 ml of MCT (refer to Example 15)/100 g body weight for 5 weeks.\nThe rats of the second group were raised with a Vitamin D-deficient diet (TD-81143, made by TEKLAD Co., U.S.A., which causes abnormal metabolism of magnesium) with daily oral administration of 0.2 ml of MCT/100 g body weight for 5 weeks.\nThe rats of the third group were raised with the Vitamin D-deficient diet as in those of the […] with daily oral administration of 1 microgram of 24R,25-(OH)2 -D3 dissolved in 0.2 ml of MCT/100 g body weight for 5 weeks.\nThe rats of the fourth group were raised with the Vitamin D-deficient diet as in those of the […] with daily oral administration of 10 micrograms of 24R,25-(OH)2 -D3 dissolved in 0.2 ml of MCT/100 g body weight for 5 weeks.\nAfter the final administration was over, all the rats were sacrificed to collect their bones and blood respectively.\nSerum specimen was prepared by the ordinary method from the blood specimen, and the bones were washed to remove marrow, lyopholized at -20° C. for 3 days and pulverized in a mortar. After de-ashing 50 mg of the thus pulverized bone with 1 ml of 2 N aqueous hydrochloric solution at room temperature, the insoluble matter was removed by filtration, and the filtrate was subjected to atomic absorption method to find out the content of magnesium in the bone specimen. Magnesium content of the serum specimen was determined by atomic absorption method."}}, "data": [{"smiles": "C=C1CC[C@H](O)C/C1=C/C=C1\\CCC[C@]2(C)[C@@H]([C@H](C)CC[C@@H](O)C(C)(C)O)CC[C@@H]12", "note": "[24R,25-(OH)2 -D3]", "values": [{"measurement": "Number of K-562 cells after culture", "setting": "[1]; 1 microgram/ml", "result": "8.5 ×10^5 cells/ml"}, {"measurement": "Number of K-562 cells after culture", "setting": "[1]; 10 micrograms/ml", "result": "3.5 ×10^5 cells/ml"}, {"measurement": "inhibition at 1 µg/mL", "setting": "[1]; Homo sapiens, K562, 72 h, 1 microgram/ml, vs dimethylsulfoxide, read-out: Inhibition Rate of K-562 cells", "result": 14, "unit": "%"}, {"measurement": "inhibition at 10 µg/mL", "setting": "[1]; Homo sapiens, K562, 72 h, 10 micrograms/ml, vs dimethylsulfoxide, read-out: Inhibition Rate of K-562 cells", "result": 65, "unit": "%"}, {"measurement": "Calcium level in serum", "setting": "[2]; after 2 hours", "result": "12.5 ± 0.5", "unit": "mg/dL"}, {"measurement": "Calcium level in serum", "setting": "[2]; after 5 hours", "result": "10.5 ± 0.5", "unit": "mg/dL"}, {"measurement": "calcium level in serum before treatment", "setting": "[3]; baseline", "result": 14.0, "unit": "mg/dL"}, {"measurement": "calcium level in serum on the sixth day", "setting": "[3]; two 5 µg capsules/day oral, 5 days", "result": 10.8, "unit": "mg/dL"}, {"measurement": "period for which the reduced calcium level was maintained", "setting": "[4]; 100 µg/kg oral", "result": 12, "unit": "h"}, {"measurement": "Calcium level in serum", "setting": "[4]; 2 h after administration", "result": "12.5 ± 0.4", "unit": "mg/dL"}, {"measurement": "Calcium level in serum", "setting": "[4]; 5 h after administration", "result": "11.0 ± 0.5", "unit": "mg/dL"}, {"measurement": "Calcium level in serum", "setting": "[4]; 8 h after administration", "result": "10.5 ± 0.5", "unit": "mg/dL"}, {"measurement": "Calcium level in serum", "setting": "[4]; 12 h after administration", "result": "10.5 ± 0.4", "unit": "mg/dL"}, {"measurement": "Calcium level in serum", "setting": "[4]; 24 h after administration", "result": "10.8 ± 0.3", "unit": "mg/dL"}, {"measurement": "Content of magnesium in bone", "setting": "[5]; 1 µg/100 g/day oral 5 weeks", "result": "0.395 ± 0.021", "unit": "%"}, {"measurement": "Content of magnesium in serum", "setting": "[5]; 1 µg/100 g/day oral 5 weeks", "result": "4.0 ± 0.3", "unit": "mg/dL"}, {"measurement": "Content of magnesium in bone", "setting": "[5]; 10 µg/100 g/day oral 5 weeks", "result": "0.396 ± 0.016", "unit": "%"}, {"measurement": "Content of magnesium in serum", "setting": "[5]; 10 µg/100 g/day oral 5 weeks", "result": "3.6 ± 0.3", "unit": "mg/dL"}]}]}
